Assay results published in patent publication US6566348B1, “Pesticides based on cyclic polysiloxanes” (Bayer Aktiengesellschaft, priority 1995, dated 2003).

Assay: Crystallizing out at low temperatures
Type: physicochemical

C[Si]1(C)O[Si](C)(C)O[Si](C)(C)O[Si](C)(C)O[Si](C)(C)O1 [Decamethylcyclopentasiloxane, decamethylcyclopentasiloxane]
stability at low temperatures: stable at low temperatures, without crystallizing out
